# Experimental data from PMC3930474 (Journal of controlled release : official journal of the …, 2013).
# What was measured:
# 4T1 tumors [1] = experiment: Tumor homing / tumor extravasation of FAM-labeled peptides and conjugates; type: in vivo, mouse; settings: FAM-labeled peptide i.v., three hours after the injection
# [2] = mouse, in vivo, iv
# 4T1 tumors [3] = experiment: Evans Blue assay; type: in vivo, mouse; settings: mice
substance,measurement,setting,value
CRGDK/RGPD/EC (disulfide) [iRGD],peptide signal in the tumors,4T1 tumors [1],had weakened
same,plasma half-life,[2],8 min
same,duration of the bystander effect after a bolus injection,4T1 tumors [3],less than one hour
